The test system of data set [1] is HCC827 human non-small cell lung cancer xenograft. Briefly: HCC827 human non-small cell lung cancer xenograft model. It is filed as in vivo, nude mice. The following applies: for Tumor Weight (x ± S.D.) / Tumor Inhibitor Rate / Relative Tumor Volume (x ± S.D.) / T/C / Tumor Volume (x ± S.D.): HCC827 xenograft; for Tumor Inhibitor Rate: by tumor weight; for Relative Tumor Volume (x ± S.D.) / T/C / Tumor Volume (x ± S.D.): end of the assay. As for the experimental part: Tumor cells were cultured in an incubator at 37° C. with 5% CO2 using MEM medium containing 10% inactivated fetal calf serum, 100 U/ml penicillin and 100 μg/ml streptomycin. The tumor cells in logarithmic growth phase were collected, adjusted to an appropriate density and injected subcutaneously into nude mice (0.2 ml per mouse). An xenograft model was established after a tumor was formed in the nude mice and passaged in vivo for more than three generations.
The above-mentioned tumor-bearing mice were sacrificed by cervical dislocation. The tumor was taken out and cut into small tumor pieces (about 2 mm×2 mm×2 mm) under sterile conditions. The small tumor pieces were inoculated subcutaneously into nude mice on the right shoulder blade with a trocar. […] The animals in each group were subjected to intragastric administration daily for 14 consecutive days. The day of grouping is assigned as day 0.
Tumor volume is calculated as: volume=0.5×long diameter×short diameter^2. The relative tumor volume (RTV) was calculated based on the measurements as: RTV=Vt/V0, wherein V0 is the tumor volume measured when the animals were grouped to be administrated (i.e., d0), and Vt is the tumor volume when each measurement was taken. Relative tumor proliferation rate T/C was calculated based on relative tumor volume, in which T is the mean value of the relative tumor volume of the treatment group, and C is the mean value of the relative tumor volume of the solvent control group. T/C was calculated as follows: T/C=TRTV/CRTV×100% (TRTV: RTV of the treatment group; CRTV: RTV of the solvent control group) Inhibition rate (%)=(mean tumor weight of the solvent control group−mean tumor weight of the treatment group)/mean tumor weight of the solvent control group x 100%. Percentage of body weight change=Wn/W0×100% (Wn: mean body weight of experimental animals in each group at day n, W0: mean body weight of experimental animals in each group at day 0).
(§1) One-Way ANOVA test was conducted in SPSS13.0, performing statistical analysis between groups.
On the technique in general: A xenograft is tissue or cells of one species grown in another, often human tumour cells in immunodeficient mice.

The test system of data set [2] is A431 human epidermal carcinoma xenograft. Description: A431 human epidermal carcinoma xenograft model. The format is in vivo, nude mice. Conditions: for Tumor Weight (x ± S.D.) / Tumor Inhibitor Rate / Relative Tumor Volume (x ± S.D.) / T/C / Tumor Volume (x ± S.D.): A431 xenograft; for Tumor Inhibitor Rate: by tumor weight; for Relative Tumor Volume (x ± S.D.) / T/C / Tumor Volume (x ± S.D.): end of the assay. Here is the method:
Tumor cells were cultured in an incubator at 37° C. with 5% CO2 using MEM medium containing 10% inactivated fetal calf serum, 100 U/ml penicillin and 100 µg/ml streptomycin. The tumor cells in logarithmic growth phase were collected, adjusted to an appropriate density and injected subcutaneously into nude mice (0.2 ml per mouse). An xenograft model was established after a tumor was formed in the nude mice and passaged in vivo for more than three generations.
The above-mentioned tumor-bearing mice were sacrificed by cervical dislocation. The tumor was taken out and cut into small tumor pieces (about 2 mm×2 mm×2 mm) under sterile conditions. The small tumor pieces were inoculated subcutaneously into nude mice with a trocar. […] The animals in each group were subjected to intragastric administration once a day for 14 consecutive days. The day of grouping is assigned as day 0.
Tumor volume is calculated as: volume =0.5×long diameter×short diameter^2. The relative tumor volume (RTV) was calculated based on the measurements as: RTV=Vt/V0, wherein V0 is the tumor volume measured when the animals were grouped to be administrated (i.e., d0), and Vt is the tumor volume when each measurement was taken. Relative tumor proliferation rate T/C was calculated based on relative tumor volume, in which T is the mean value of the relative tumor volume of the treatment group, and C is the mean value of the relative tumor volume of the solvent control group. T/C was calculated as follows: T/C=TRTV/CRTV×100% (TRTV: RTV of the treatment group; CRTV:
RTV of the solvent control group) Inhibition rate (%)=(mean tumor weight of the solvent control group−mean tumor weight of the treatment group)/mean tumor weight of the solvent control group×100%. Percentage of body weight change=Wn/W0×100% (Wn: mean body weight of experimental animals in each group at day n, W0: mean body weight of experimental animals in each group at day 0).
as §1

The nature of data set [3]: MTD assay, single administration to mice. The format is in vivo. The following applies: ICR male mice, tail intravenous administration, 14 days. The source says: MTD Assay for a Single […] to Mice
1. Experimental Animals: ICR male mice, weighing 19-22 g, were purchased from Beijing Vital River Laboratory Animal Technology Co., Ltd., Animal License No. SCXK (Beijing) 2007-0001
2. Experimental Scheme: 21 mice were divided into nine groups: groups I, IV and VI referred to one mouse per group, groups II, V and IIX referred to four mice per group, and group III, VI and IX referred to two mice per group. Compound 4, compound 2 and compound 12 were dissolved in water for injection. Groups I-III were subjected to tail intravenous administration of compound 4 (N-[4-(3-chloro-4-fluorophenylamino)-7-(2-methoxyethoxy)quinazolin-6yl]-2-[piperidin-4-ylidene]acetamide dihydrochloride) at doses of 100 mg/kg, 150 mg/kg, and 200 mg/kg, respectively. The animal response and the weight change were observed after administration, and these animals were sacrificed after 14 days for anatomical observation. Groups IV-VI were subjected to tail intravenous administration of compound 2 (N-[4-(3-chloro-4-fluorophenylamino)-7-(2-methoxyethoxy)quinazolin-6yl]-2-[1-(2-methoxyethyl)piperidin-4-ylidene]acetamide dihydrochloride) at doses of 100 mg/kg, 150 mg/kg, and 200 mg/kg, respectively. The animal response and the weight change were observed after administration, and these animals were sacrificed after 14 days for anatomical observation. Groups VII-IX were subjected to tail intravenous administration of compound 12 (N-[4-(3-ethynylphenylamino-7-(2-ethoxy)quinazolin-6yl]-2-[1-methylpiperidin-4-ylidene]acetamide dihydrochloride) at doses of 100 mg/kg, 150 mg/kg, and 200 mg/kg, respectively. The animal response and the weight change were observed after administration, and these animals were sacrificed after 14 days for anatomical observation.

The mark [4] stands for this setting: HCC827 xenograft nude mice, 20, 40 and 80 mg/kg intragastric daily for 14 days.
Where [5] appears, read: 20 mg/kg intragastric daily for 14 days.
[6] abbreviates: 40 mg/kg intragastric daily for 14 days.
The mark [7] stands for this setting: 80 mg/kg intragastric daily for 14 days.
Where [8] appears, read: A431 xenograft nude mice, 20, 40 and 80 mg/kg intragastric once a day for 14 days.
The mark [9] stands for this setting: 20 mg/kg intragastric once a day for 14 days.
Setting [10] is: 40 mg/kg intragastric once a day for 14 days.
The mark [11] stands for this setting: 80 mg/kg intragastric once a day for 14 days.

Marks after values point to notes of the source that are not given here.

What is called T/C is the result in the treated group divided by that in the control group, in per cent.

Turning to `COCCOc1cc2ncnc(Nc3ccc(F)c(Cl)c3)c2cc1NC(=O)C=C1CCN(CCOC)CC1.CS(=O)(=O)O` [Compound 3, N-[4-(3-chloro-4-fluorophenylamino)-7-(2-methoxyethoxy)quinazolin-6-yl]-2-[1-(2-methoxyethyl)piperidin-4-ylidene]acetamide dimethylsulfonate], the “Body weights of the experimental animals” value in data set [1] (setting [4]) and in data set [2] (setting [8]) was “not significantly reduced” in each case. Further, the “abnormality in the experimental animals” value in data set [1] (setting [4]) and in data set [2] (setting [8]) was “no significant abnormality was observed” each time. Further, the “Tumor Weight (x ± S.D.)” value was determined as 0.045 ± 0.074 g in data set [1] (setting [5]); 0.026 ± 0.026 g in data set [1] (setting [6]); 0.014 ± 0.013 g in data set [1] (setting [7]); 0.232 ± 0.312 g in data set [2] (setting [9]); 0.199 ± 0.153 g in data set [2] (setting [10]); 0.107 ± 0.126 g in data set [2] (setting [11]). For the same compound, the “Tumor Inhibitor Rate” value is 91.7% in data set [1] (setting [5]); 95.2% in data set [1] (setting [6]); 97.4% in data set [1] (setting [7]); 68.6% in data set [2] (setting [9]); 73.2% in data set [2] (setting [10]); 85.6% in data set [2] (setting [11]). Moreover, the “Relative Tumor Volume (x ± S.D.)” value is 0.36 ± 0.45 in data set [1] (setting [5]); 0.13 ± 0.10 in data set [1] (setting [6]); 0.13 ± 0.04 in data set [1] (setting [7]); 2.3 ± 1.5 in data set [2] (setting [9]); 2.8 ± 2.3 in data set [2] (setting [10]); 1.4 ± 0.9 in data set [2] (setting [11]). Besides, the T/C in data set [1] (setting [5]) was determined as 5.0%; in data set [1] (setting [6]) it was 1.8%; in data set [1] (setting [7]) it was 1.8%; in data set [2] (setting [9]), 30.6%; in data set [2] (setting [10]), 37.7%; in data set [2] (setting [11]), 19.1%. The “Tumor Volume (x ± S.D.)” value in data set [1] (setting [5]) is recorded as 57.3 ± 77.6*** mm^3; in data set [1] (setting [6]), 18.4 ± 11.6*** mm^3; in data set [1] (setting [7]) it was 20.9 ± 8.6*** mm^3; in data set [2] (setting [9]), 424.9 ± 434.0*** mm^3; in data set [2] (setting [10]), 418.9 ± 284.7*** mm^3; in data set [2] (setting [11]), 254.7 ± 228.2*** mm^3.

For the compound `COCCOc1cc2ncnc(Nc3ccc(F)c(Cl)c3)c2cc1NC(=O)C=C1CCN(CCOC)CC1.Cl.Cl` [Compound 2, N-[4-(3-chloro-4-fluorophenylamino)-7-(2-methoxyethoxy)quinazolin-6yl]-2-[1-(2-methoxyethyl)piperidin-4-ylidene]acetamide dihydrochloride], the Mortality in data set [3] (100 mg/kg, 1 animal) turned out to be 0%; in data set [3] (150 mg/kg, 4 animals) it was 0%; in data set [3] (200 mg/kg, 2 animals), 0%. Besides, the “Number of Deaths” value in data set [3] (100 mg/kg, 1 animal) was 0; in data set [3] (150 mg/kg, 4 animals), 0; in data set [3] (200 mg/kg, 2 animals), 0.
